Where two headings read alike, the source gives them in different places.
Legend:
[1] = tested on: HIV-1 strains resistant to INSTIs, NRTIs, NNRTIs or PIs; assay type: cell-based; conditions: for Fold change in EC50 relative to NL4-3, G140S/Q148H / Fold change in EC50 relative to NL4-3, G140S / Fold change in EC50 relative to NL4-3, Q148H / Fold change in EC50 relative to NL4-3, E92Q/N155H (pat.) / Fold change in EC50 relative to NL4-3, G140S/Q148H (pat.) / Fold change in EC50 relative to NL4-3, T97A/N155H (pat.) / Fold change in EC50 relative to NL4-3, E92Q / Fold change in EC50 relative to NL4-3, N155H / Fold change in EC50 relative to NL4-3, Y143R: INSTI-resistant; for Fold change in EC50 relative to NL4-3, G140S/Q148H / Fold change in EC50 relative to NL4-3, K103N/Y181C / Fold change in EC50 relative to NL4-3, G140S / Fold change in EC50 relative to NL4-3, Q148H / Fold change in EC50 relative to NL4-3, E92Q / Fold change in EC50 relative to NL4-3, N155H / Fold change in EC50 relative to NL4-3, Y143R: NL4-3 background; for Fold change in EC50 relative to NL4-3, NLAY351717: NRTI-resistant clone; for Fold change in EC50 relative to NL4-3, NLAY351753: NRTI/NNRTI-resistant clone; for Fold change in EC50 relative to NL4-3, K103N/Y181C: NRTI/NNRTIs group; for Fold change in EC50 relative to NL4-3, ARP-4595 / Fold change in EC50 relative to NL4-3, ARP-4596 / Fold change in EC50 relative to NL4-3, ARP-11801 / Fold change in EC50 relative to NL4-3, ARP-11803 / Fold change in EC50 relative to NL4-3, ARP-11807 / Fold change in EC50 relative to NL4-3, ARP-11808: PI-resistant virus; for Fold change in EC50 relative to NL4-3, E92Q/N155H (pat.) / Fold change in EC50 relative to NL4-3, G140S/Q148H (pat.) / Fold change in EC50 relative to NL4-3, T97A/N155H (pat.): primary patient-derived strain
Description: To this end, we used both recombinant viruses constructed by introducing described drug resistance mutations into NL4-3 HIV-1 clone as well as drug-resistant clinical HIV-1 isolates.
(§1) MT4 cells growing exponentially at the density of 10^6/mL were infected with HIV-1 strain NL4-3 at a multiplicity of infection (MOI) of 0.001 for 2 h in the presence of different concentrations of compounds, and the CellTiter-Glo luminescent reagent (Promega) was used to quantify cell viability as described previously ([12]).

[2] = tested on: NL4-3 HIV-1 with INLAI-selected IN single point mutations; assay type: cell-based
NL4-3 HIV-1 strain = assay: Multiple-round infection assay in MT4 cells, NL4-3; assay type: cell-based
HXB2 HIV-1 strain = assay: Multiple-round infection assay in MT4 cells, HXB2; assay type: cell-based; conditions: Human immunodeficiency virus 1, HXB2, MT4, read-out: EC50 HXB2
Description: Antiretroviral activity of BDM-2 and its analogs was first evaluated in lymphoblastoid cell line MT4 and in primary human T lymphocytes using NL4-3 and HXB2 laboratory HIV-1 isolates.
as §1

[3] = tested on: VSV-G-pseudotyped NL4-3Δenv-luc; assay: microbe, parasite or virus in culture; assay type: cell-based, HIV-1; conditions: Human immunodeficiency virus 1, NL43, MT4, read-out: EC50 in single-round infection
[4] = tested on: lab-adapted and clinical HIV-1 isolates; assay: Infection assays in primary T CD4+ lymphocytes; assay type: cell-based; conditions: Human immunodeficiency virus 1, Lymphocyte
[5] = Cytotoxicity assay in MT4 cells; assay type: cell-based; conditions: human, MT4 cells (proliferating human T-cell line), CellTiter-Glo
Source text: Growth inhibition was monitored in a proliferating human T-cell line (MT4) with different concentrations of compounds, using the CellTiter-Glo luminescent reagent (Promega), as previously described ([12]).

SMILES | Fold change in EC50 relative to NL4-3, G140S/Q148H [1] | Fold change in EC50 relative to NL4-3, NLAY351717 [1] | Fold change in EC50 relative to NL4-3, NLAY351753 [1] | Fold change in EC50 relative to NL4-3, K103N/Y181C [1] | Fold change in EC50 relative to NL4-3, ARP-4595 [1] | Fold change in EC50 relative to NL4-3, ARP-4596 [1] | Fold change in EC50 relative to NL4-3, ARP-11801 [1] | Fold change in EC50 relative to NL4-3, ARP-11803 [1] | Fold change in EC50 relative to NL4-3, ARP-11807 [1] | Fold change in EC50 relative to NL4-3, ARP-11808 [1] | Fold change in EC50 relative to NL4-3, G140S [1] | Fold change in EC50 relative to NL4-3, Q148H [1] | Fold change in EC50 relative to NL4-3, E92Q/N155H (pat.) [1] | Fold change in EC50 relative to NL4-3, G140S/Q148H (pat.) [1] | Fold change in EC50 relative to NL4-3, T97A/N155H (pat.) [1] | Fold change in EC50 relative to NL4-3, E92Q [1] | Fold change in EC50 relative to NL4-3, N155H [1] | Fold change in EC50 relative to NL4-3, Y143R [1] | further results
CC(C)CN(C[C@@H](O)[C@H](Cc1ccccc1)NC(=O)O[C@H]1CO[C@H]2OCC[C@H]21)S(=O)(=O)c1ccc(N)cc1 [DRV, darunavir] | 1 | 1 | 1 | 1 | 1 | 1 | 31 | 24 | 12 | 240 | – | – | – | – | – | – | – | – | –
Cc1cc(/C=C/C#N)cc(C)c1Nc1ccnc(Nc2ccc(C#N)cc2)n1 [RPV, rilpivirine] | 1 | 1 | 0.4 | 3 | 1 | 1 | 0.4 | 1 | 1 | 1 | 1 | 1 | 1 | 1 | 1 | – | – | – | –
O=C1Nc2ccc(Cl)cc2[C@@](C#CC2CC2)(C(F)(F)F)O1 [EFV, efavirenz] | 1 | 2 | 39 | 51 | 1 | 1 | 0.5 | 1 | 2 | 1 | 1 | 1 | 1 | 1 | 2 | 1 | 1 | 1 | –
Cc1cn([C@H]2C[C@H](N=[N+]=[N-])[C@@H](CO)O2)c(=O)[nH]c1=O [AZT, azidothymidine] | 1 | 150 | 210 | 0.1 | 2 | 1 | 1 | 2 | 2 | 5 | 1 | 1 | 1 | 1 | 4 | 1 | 1 | 1 | –
COc1cc2c(cc1Cc1cccc(Cl)c1F)c(=O)c(C(=O)O)cn2[C@H](CO)C(C)C [EVG, elvitegravir] | 2500 | 1 | 1 | 1 | 1 | 1 | 1 | 1 | 2 | 2 | 2 | 3 | 200 | 2000 | 440 | 24 | 12 | 2 | EC50 fold change compared to wild type NL4-3, A128T ([2]; NL4-3 IN A128T): 1; EC50 fold change compared to wild type NL4-3, H171Q ([2]; NL4-3 IN H171Q): 1; EC50 fold change compared to wild type NL4-3, N222K ([2]; NL4-3 IN N222K): 1; EC50 fold change compared to wild type NL4-3, T174I ([2]; NL4-3 IN T174I): 1; EC50 fold change compared to wild type NL4-3, Y99H ([2]; NL4-3 IN Y99H): 1; EC50 (NL4-3 HIV-1 strain; Human immunodeficiency virus 1, NL43, MT4, wild type NL4-3, Table 9, read-out: EC50 NL4-3): 2.2 ± 1.2 nM
Cc1nnc(C(=O)NC(C)(C)c2nc(C(=O)NCc3ccc(F)cc3)c(O)c(=O)n2C)o1 [RAL, raltegravir] | – | – | – | – | – | – | – | – | – | – | – | – | – | – | – | – | – | – | EC50 (HXB2 HIV-1 strain): 8.7 ± 6 nM; EC50 (NL4-3 HIV-1 strain; Human immunodeficiency virus 1, NL43, MT4, read-out: EC50 NL4-3): 14 ± 9 nM; EC90 (NL4-3 HIV-1 strain; Human immunodeficiency virus 1, NL43, MT4, read-out: EC90 NL4-3): 28 ± 14 nM; EC50 [3]: 3.5 ± 1 nM; EC50 ([4]; read-out: EC50 33913N (B)): 2.1 ± 0.1 nM; EC50 ([4]; read-out: EC50 HXB2 (B)): 2.6 ± 1.4 nM; EC50 ([4]; read-out: EC50 KER2008 (A)): 6.7 ± 4 nM; EC50 ([4]; read-out: EC50 NL4-3 (B)): 4.9 ± 2.3 nM; EC50 ([4]; read-out: EC50 NP1525 (CRF01_AE)): 4 ± 1.7 nM; EC50 ([4]; read-out: EC50 NP1538 (B)): 1.7 ± 1.9 nM; CC50 [5]: 438000 ± 29000 nM
CC(C)(C)NC(=O)[C@@H]1CN(Cc2cccnc2)CCN1C[C@@H](O)C[C@@H](Cc1ccccc1)C(=O)N[C@H]1c2ccccc2C[C@H]1O [IDV, indinavir] | 1 | 1 | 1 | 1 | 5 | 8 | 92 | 260 | 36 | 59 | – | – | – | – | – | 1 | 1 | 1 | –
